One block for each compound: values may come before it.
Legend:
[1] = test system: urethra internal pressure of a rat; test: Measurement of Urethra Internal Pressure in Rat Under Anesthesia; format: in vivo; details: SD male rat under urethane anesthesia, intravenous
From the text: A SD male rat (Crl: CD(SD), Charles River Laboratories Japan, Inc., 7-10 weeks old) was anesthetized by subcutaneous administration of 1.5 g/kg urethane at a back of a neck. After neck median incision, a jugular vein catheter for intravenous administration was inserted. A lower abdominal part was median incised, and a urethra was ligated at around pubis. A urethral catheter for measuring a urethra internal pressure, equipped with a collar at a tip and filled with a physiological saline was inserted into a urethra through an incised bladder top, and ligation-fixed at a bladder neck part. The urethral catheter was connected to a pressure transducer (manufactured by Nihon Kohden Corporation), and a urethra internal pressure was measured. […] A urethra internal pressure reduction rate (%) was calculated based on a urethra internal pressure after compound administration, wherein a value obtained by subtracting a postmortem baseline value (minimum value of urethra internal pressure for 10 minutes after administration of somnopentyl) from a urethra internal pressure value before compound administration (0 minute) was 100%.

human ENPP2 = human ENPP2 (Homo sapiens (Human), UniProt Q13822); test: Measurement of Human ENPP2 Inhibitory Activity; format: biochemical; details: 1 μM test compound; 16:0-LPC substrate, choline production; read-out: ENPP2 inhibition rate(%) (1 μM)
Method: 10 μL of a test compound solution (10% dimethyl sulfoxide) at each concentration and 40 μL of a 5 μg/mL human ENPP2 solution (buffer A: 100 mmol/L Tris-HCl (pH 9.0), 500 mmol/L NaCl, 5 mmol/L MgCl2, 0.05% Triton X-100) were mixed, 50 μL of a 2 mmol/L 16:0-lysophosphatidylcholine (LPC) solution (buffer A) was further added to react at 37° C. for 24 hours. Subsequently, to 10 μL of the reaction solution was added 90 μL of a measurement buffer (0.5 mmol/L aminoantipyrine, 0.3 mmol/L N-ethyl-N-(2-hydroxy-3-sulfopropyl)-3-methylaniline, 1 U/mL peroxidase, 3 U/mL choline oxidase, 100 mmol/L Tris-HCl (pH 8.5), 5 mmol/L CaCl2) to react at 37° C. for 20 minutes, and spectrophotometric determination was performed at 555 nm.
Using a standard curve, a choline production amount (enzyme activity) in each test compound was calculated, and the inhibitory activity rate of each test compound was calculated, wherein the enzyme activity in a positive control to which a test compound is not added, was a 0% inhibition rate, and the enzyme activity in a negative control to which a test compound and human ENPP2 are not added, were 100% inhibition. Further, concerning the present compounds shown in Table 3, an IC50 value was calculated from inhibitory activity rate at each concentration.

Compound: O=C(O)CCCCC(=O)N1CCc2c(n(CCCc3ccccc3)c3ccccc23)C1 [Example 3, 6-oxo-6-[9-(3-phenylpropyl)-1,3,4,9-tetrahydro-2H-beta-carbolin-2-yl]hexanoic acid]
- urethra internal pressure ([1]; dose 0.1, 0.3, 1.0 mg/kg, FIG. 1): significantly reduced a urethra internal pressure

Compound: O=C(C[C@H]1CC[C@H](C(=O)O)CC1)N1CCc2c(n(Cc3ccc(Cl)cc3F)c3ncccc23)C1 [Example 31(24), trans-4-{2-[9-(4-chloro-2-fluorobenzyl)-5,6,8,9-tetrahydro-7H-pyrido[4′,3′:4,5]pyrrolo[2,3-b]pyridin-7-yl]-2-oxoethyl}cyclohexanecarboxylic acid]
- urethra internal pressure ([1]; dose 0.03, 0.1, 0.3 mg/kg, FIG. 2): significantly reduced a urethra internal pressure

- inhibition at 1 µM (human ENPP2): 98.6%
Compound: O=C(CC12CCC(C(=O)O)(CC1)CC2)N1CCc2c(n(Cc3ccc(Cl)cc3F)c3ncccc23)C1 [Example 31(142), 4-{2-[9-(4-chloro-2-fluorobenzyl)-5,6,8,9-tetrahydro-7H-pyrido[4′,3′:4,5]pyrrolo[2,3-b]pyridin-7-yl]-2-oxoethyl}bicyclo[2.2.2]octane-1-carboxylic acid]

Reference: patent publication US9636330B2, “Tetrahydrocarboline derivative” (ONO PHARMACEUTICAL CO., LTD., priority 2010, dated 2017)
